In ChEMBL document CHEMBL3885861, “Open TG-GATES”:

Species: Rattus norvegicus
Experiment: Open TG-GATES - Regimen: Daily Repeat
Format: toxicity, organism-based, Sprague-Dawley
Parameters: regimen Daily Repeat, gender Male, age 6 weeks
Details: in vivo, po, 30 mg/kg, route gavage, dose level Low; for APTT / Bas / Eos / Fbg / Hb / Ht / Lym / MCH / MCHC / MCV / Mono / Neu / PT / Plat / RBC / Ret / WBC: tissue Blood; for KIDNEY_L / KIDNEY_R / KIDNEY_TOTAL: tissue Kidney; for LIVER: tissue Liver; for A/G / ALP / ALT / AST / BUN / CRE / Ca / Cl / DBIL / GLC / IP / K / LDH / Na / PL / RALB / TBIL / TC / TG / TP / gamma-GTP: tissue Plasma

Compound: CCCNC(=O)NS(=O)(=O)c1ccc(Cl)cc1 [CHLORPROPAMIDE]
- TERMINAL_BW (72 h, time 3 day): 215.3 g
- APTT (72 h, time 3 day): 21.2 s
- Bas (72 h, time 3 day): 0%
- Eos (72 h, time 3 day): 1.2%
- Fbg (72 h, time 3 day): 265 mg/dL
- Hb (72 h, time 3 day): 13.2 g/dL
- Ht (72 h, time 3 day): 39.6%
- Lym (72 h, time 3 day): 80.6%
- MCH (72 h, time 3 day): 21.1 pg
- MCHC (72 h, time 3 day): 33.2%
- MCV (72 h, time 3 day): 63.3 fL
- Mono (72 h, time 3 day): 2.4%
- Neu (72 h, time 3 day): 15%
- PT (72 h, time 3 day): 15.8 s
- Plat (72 h, time 3 day): 116.1 x10_4/uL
- RBC (72 h, time 3 day): 626 x10_4/ul
- Ret (72 h, time 3 day): 7%
- WBC (72 h, time 3 day): 83.4 x10_2/uL
- KIDNEY_L (72 h, time 3 day): 0.9 g
- KIDNEY_R (72 h, time 3 day): 0.9 g
- KIDNEY_TOTAL (72 h, time 3 day): 1.8 g
- LIVER (72 h, time 3 day): 10.1 g
- A/G (72 h, time 3 day): 0.9
- ALP (72 h, time 3 day): 1696 IU/L
- ALT (72 h, time 3 day): 49.6 IU/L
- AST (72 h, time 3 day): 73.2 IU/L
- BUN (72 h, time 3 day): 17.8 mg/dL
- CRE (72 h, time 3 day): 0.2 mg/dL
- Ca (72 h, time 3 day): 10.6 mg/dL
- Cl (72 h, time 3 day): 106 meq/L
- DBIL (72 h, time 3 day): 0.01 mg/dL
- GLC (72 h, time 3 day): 174 mg/dL
- IP (72 h, time 3 day): 7.5 mg/dL
- K (72 h, time 3 day): 4.1 meq/L
- LDH (72 h, time 3 day): 80.8 IU/L
- Na (72 h, time 3 day): 143.2 meq/L
- PL (72 h, time 3 day): 151 mg/dL
- RALB (72 h, time 3 day): 2.6 g/dL
- TBIL (72 h, time 3 day): 0.024 mg/dL
- TC (72 h, time 3 day): 78.8 mg/dL
- TG (72 h, time 3 day): 108 mg/dL
- TP (72 h, time 3 day): 5.7 g/dL
- gamma-GTP (72 h, time 3 day): 1 IU/L
- TERMINAL_BW ([…], time 7 day): 245.8 g
- TERMINAL_BW ([…], time 14 day): 303 g
- TERMINAL_BW ([…], time 28 day): 389 g
- APTT ([…], time 7 day): 19.1 s
- Bas ([…], time 7 day): 0%
- Eos ([…], time 7 day): 1%
- Fbg ([…], time 7 day): 284.8 mg/dL
- Hb ([…], time 7 day): 13.7 g/dL
- Ht ([…], time 7 day): 41.3%
- Lym ([…], time 7 day): 79.6%
- MCH ([…], time 7 day): 21.3 pg
- MCHC ([…], time 7 day): 33.2%
- MCV ([…], time 7 day): 64.2 fL
- Mono ([…], time 7 day): 1.8%
- Neu ([…], time 7 day): 16.2%
- PT ([…], time 7 day): 15.5 s
- Plat ([…], time 7 day): 127.7 x10_4/uL
- RBC ([…], time 7 day): 643 x10_4/ul
- Ret ([…], time 7 day): 5.9%
- WBC ([…], time 7 day): 95.2 x10_2/uL
- APTT ([…], time 14 day): 16.7 s
- Bas ([…], time 14 day): 0%
- Eos ([…], time 14 day): 0.8%
- Fbg ([…], time 14 day): 263 mg/dL
- Hb ([…], time 14 day): 14.3 g/dL
- Ht ([…], time 14 day): 43.2%
- Lym ([…], time 14 day): 79.6%
- MCH ([…], time 14 day): 20.8 pg
- MCHC ([…], time 14 day): 33.2%
- MCV ([…], time 14 day): 62.7 fL
- Mono ([…], time 14 day): 2.6%
- Neu ([…], time 14 day): 15.6%
- PT ([…], time 14 day): 16.1 s
- Plat ([…], time 14 day): 107.2 x10_4/uL
- RBC ([…], time 14 day): 688.6 x10_4/ul
- Ret ([…], time 14 day): 4.6%
- WBC ([…], time 14 day): 100.6 x10_2/uL
- APTT ([…], time 28 day): 18.8 s
- Bas ([…], time 28 day): 0%
- Eos ([…], time 28 day): 1%
- Fbg ([…], time 28 day): 296.4 mg/dL
- Hb ([…], time 28 day): 14.9 g/dL
- Ht ([…], time 28 day): 45.1%
- Lym ([…], time 28 day): 78.8%
- MCH ([…], time 28 day): 19.4 pg
- MCHC ([…], time 28 day): 33%
- MCV ([…], time 28 day): 58.9 fL
- Mono ([…], time 28 day): 2.8%
- Neu ([…], time 28 day): 16.2%
- PT ([…], time 28 day): 16 s
- Plat ([…], time 28 day): 106.6 x10_4/uL
- RBC ([…], time 28 day): 766.6 x10_4/ul
- Ret ([…], time 28 day): 2.5%
- WBC ([…], time 28 day): 98 x10_2/uL
- KIDNEY_L ([…], time 7 day): 1 g
- KIDNEY_R ([…], time 7 day): 1 g
- KIDNEY_TOTAL ([…], time 7 day): 2 g
- KIDNEY_L ([…], time 14 day): 1.2 g
- KIDNEY_R ([…], time 14 day): 1.2 g
- KIDNEY_TOTAL ([…], time 14 day): 2.4 g
- KIDNEY_L ([…], time 28 day): 1.4 g
- KIDNEY_R ([…], time 28 day): 1.4 g
- KIDNEY_TOTAL ([…], time 28 day): 2.8 g
- LIVER ([…], time 7 day): 11.3 g
- LIVER ([…], time 14 day): 13.3 g
- LIVER ([…], time 28 day): 16.1 g
- A/G ([…], time 7 day): 0.8
- ALP ([…], time 7 day): 1568.6 IU/L
- ALT ([…], time 7 day): 42 IU/L
- AST ([…], time 7 day): 66.8 IU/L
- BUN ([…], time 7 day): 16.2 mg/dL
- CRE ([…], time 7 day): 0.2 mg/dL
- Ca ([…], time 7 day): 10.9 mg/dL
- Cl ([…], time 7 day): 105.6 meq/L
- DBIL ([…], time 7 day): 0.018 mg/dL
- GLC ([…], time 7 day): 182.8 mg/dL
- IP ([…], time 7 day): 7.4 mg/dL
- K ([…], time 7 day): 3.9 meq/L
- LDH ([…], time 7 day): 93.8 IU/L
- Na ([…], time 7 day): 143.4 meq/L
- PL ([…], time 7 day): 157.6 mg/dL
- RALB ([…], time 7 day): 2.7 g/dL
- TBIL ([…], time 7 day): 0.032 mg/dL
- TC ([…], time 7 day): 76.4 mg/dL
- TG ([…], time 7 day): 136.6 mg/dL
- TP ([…], time 7 day): 5.8 g/dL
- gamma-GTP ([…], time 7 day): 1 IU/L
- A/G ([…], time 14 day): 0.8
- ALP ([…], time 14 day): 1602.6 IU/L
- ALT ([…], time 14 day): 41.8 IU/L
- AST ([…], time 14 day): 66.6 IU/L
- BUN ([…], time 14 day): 18.6 mg/dL
- CRE ([…], time 14 day): 0.2 mg/dL
- Ca ([…], time 14 day): 10.6 mg/dL
- Cl ([…], time 14 day): 103.6 meq/L
- DBIL ([…], time 14 day): 0.012 mg/dL
- GLC ([…], time 14 day): 204.8 mg/dL
- IP ([…], time 14 day): 7.7 mg/dL
- K ([…], time 14 day): 4 meq/L
- LDH ([…], time 14 day): 123.6 IU/L
- Na ([…], time 14 day): 142.6 meq/L
- PL ([…], time 14 day): 155 mg/dL
- RALB ([…], time 14 day): 2.6 g/dL
- TBIL ([…], time 14 day): 0.028 mg/dL
- TC ([…], time 14 day): 74.4 mg/dL
- TG ([…], time 14 day): 143.8 mg/dL
- TP ([…], time 14 day): 5.8 g/dL
- gamma-GTP ([…], time 14 day): 0.8 IU/L
- A/G ([…], time 28 day): 0.8
- ALP ([…], time 28 day): 1184 IU/L
- ALT ([…], time 28 day): 39 IU/L
- AST ([…], time 28 day): 64.8 IU/L
- BUN ([…], time 28 day): 18.2 mg/dL
- CRE ([…], time 28 day): 0.2 mg/dL
- Ca ([…], time 28 day): 10.8 mg/dL
- Cl ([…], time 28 day): 104.8 meq/L
- DBIL ([…], time 28 day): 0.01 mg/dL
- GLC ([…], time 28 day): 198.4 mg/dL
- IP ([…], time 28 day): 6.7 mg/dL
- K ([…], time 28 day): 3.6 meq/L
- LDH ([…], time 28 day): 99.8 IU/L
- Na ([…], time 28 day): 144.8 meq/L
- PL ([…], time 28 day): 163.8 mg/dL
- RALB ([…], time 28 day): 2.8 g/dL
- TBIL ([…], time 28 day): 0.018 mg/dL
- TC ([…], time 28 day): 77.8 mg/dL
- TG ([…], time 28 day): 165.6 mg/dL
- TP ([…], time 28 day): 6.2 g/dL
- gamma-GTP ([…], time 28 day): 1.6 IU/L
